From patent US20210101881A1 (Ancureall Pharmaceutical (Shanghai) Co., Ltd., priority 2018, published 2021)
pIC50: −log10 of the molar value. Read-outs that look alike come from different tables or passages of the source.

System: MOLM13 cells
Assay: Growth inhibition of CDK9-positive cell line MOLM13 in vitro (CCK8/MTT assay)
Format: cell-based, human
Conditions: Homo sapiens
Method: 1. MOLM13 cell line and cell culture MOLM13 is a CDK9-positive human acute myeloid leukemia cell line from DMSZ. Suspension culture was carried out in RPMI1640 (Gibco) medium with 10% fetal bovine serum (Gibco), 1% penicillin-streptomycin and 2 mM glutamine.
Suspended MOLM-13 cells in logarithmic growth phase were collected by centrifugation (1700 rpm, 3 minutes), the supernatant was discarded, and the cells were counted. A solution with a cell concentration of 2×10^5 cells per milliliter was formulated and inoculated in a 96-well plate (Corning) with 100 microliters per well. The plate was incubated at 37° C., 5% CO2 overnight. On the next day, the test compound was added to the cultured cells in two parallel wells. […]
The present compound and the control compounds were respectively dissolved in DMSO (Sigma).
When the solvent control well became dark yellow, the OD450 nm absorption value was measured, and the cell growth rate was calculated according to the following formula. Cell growth rate %=100*(T−T0)/(C−T0), wherein T=the optical density value of the drug-treated well—the optical density value of the blank control well, T0=the optical density value of the well before drug treatment—the optical density value of the blank control well, C=the optical density value of the solvent control well—the optical density value of the blank control well. […] The assay was repeated three times, and the data was subjected to a biological statistical analysis.

[1] = MOLM-13, MOLM13 cells, cultured 3 to 6 days, CCK8, read-out: IC50 of the compound for inhibiting cell growth, MOLM13 cells

SMILES | pIC50 [1] | pIC50 (MOLM-13, read-out: IC50 of the compound for inhibiting cell growth, MOLM13 cells)
Cc1cnc(Nc2ccc(N3CCNCC3)cc2)nc1-n1cc(C(N)=O)c2ccccc21 [Compound 37, 1-[5-methyl-2-(4-piperazin-1-yl-phenylamino)-pyrimidin-4-yl]-1H-indole-3-carboxamide] | 8.00 to 9.00 | 
Cc1cc(-n2cc(C(N)=O)c3ccccc32)nc(Nc2ccc(N3CCNCC3)cc2)n1 [Compound 38, 1-[6-methyl-2-(4-piperazin-1-yl-phenylamino)-pyrimidin-4-yl]-1H-indole-3-carboxamide] | 6.00 to 7.00 | 
COc1cc(Nc2ncc(F)c(-n3cc(C(N)=O)c4ccccc43)n2)ccc1N1CCNCC1 [Compound 40, 1-[5-fluoro-2-(3-methoxy-4-piperazin-1-yl-phenylamino)-pyrimidin-4-yl]-1H-indole-3-carboxamide] | > 9.00 | 
NC(=O)c1cn(-c2nc(Nc3ccc(N4CCNCC4)c(F)c3)ncc2F)c2ccccc12 [Compound 41, 1-[5-fluoro-2-(3-fluoro-4-piperazin-1-yl-phenylamino)-pyrimidin-4-yl]-1H-indole-3-carboxamide] | 8.00 to 9.00 | 
COc1cc(Nc2ncc(Cl)c(-n3cc(C(N)=O)c4ccccc43)n2)ccc1N1CCNCC1 [Compound 43, 1-[5-chloro-2-(3-methoxy-4-piperazin-1-yl-phenylamino)-pyrimidin-4-yl]-1H-indole-3-carboxamide] | > 9.00 | 
NC(=O)c1cn(-c2nc(Nc3ccc(N4CCNCC4)c(F)c3)ncc2Cl)c2ccccc12 [Compound 44, 1-[5-chloro-2-(3-fluoro-4-piperazin-1-yl-phenylamino)-pyrimidin-4-yl]-1H-indole-3-carboxamide] | 8.00 to 9.00 | 
CN1CCN(c2ccc(Nc3nccc(-n4cc(C(N)=O)c5ccccc54)n3)cc2)CC1 [Compound 45, 1-{2-[4-(4-methyl-piperazin-1-yl)-phenylamino]-pyrimidin-4-yl}-1H-indole-3-carboxamide] | 7.00 to 8.00 | 
CN1CCN(c2ccc(Nc3nccc(-n4cc(C(N)=O)c5ccccc54)n3)cc2F)CC1 [Compound 46, 1-{2-[3-fluoro-4-(4-methyl-piperazin-1-yl)-phenylamino]-pyrimidin-4-yl}-1H-indole-3-carboxamide] | 8.00 to 9.00 | 
CN1CCN(c2c(F)cc(Nc3nccc(-n4cc(C(N)=O)c5ccccc54)n3)cc2F)CC1 [Compound 47, 1-{2-[3,5-difluoro-4-(4-methyl-piperazin-1-yl)-phenylamino]-pyrimidin-4-yl}-1H-indole-3-carboxamide] | 7.00 to 8.00 | 
COc1cc(Nc2nccc(-n3cc(C(N)=O)c4ccccc43)n2)ccc1N1CCN(C)CC1 [Compound 48, 1-{2-[3-methoxy-4-(4-methyl-piperazin-1-yl)-phenylamino]-pyrimidin-4-yl}-1H-indole-3-carboxamide] | 7.00 to 8.00 | 
CN1CCN(c2ccc(Nc3nccc(-n4cc(C(N)=O)c5ccccc54)n3)cc2C#N)CC1 [Compound 49, 1-{2-[3-cyano-4-(4-methyl-piperazin-1-yl)-phenylamino]-pyrimidin-4-yl}-1H-indole-3-carboxamide] | 8.00 to 9.00 | 
Cc1cc(Nc2nccc(-n3cc(C(N)=O)c4ccccc43)n2)ccc1N1CCN(C)CC1 [Compound 50, 1-{2-[3-methyl-4-(4-methyl-piperazin-1-yl)-phenylamino]-pyrimidin-4-yl}-1H-indole-3-carboxamide] | 8.00 to 9.00 | 
Cc1cc(Nc2nccc(-n3cc(C(N)=O)c4ccccc43)n2)ccc1N1CCN(C(C)C)CC1 [Compound 51, 1-{2-[4-(4-isopropyl-piperazin-1-yl)-3-methyl-phenylamino]-pyrimidin-4-yl}-1H-indole-3-carboxamide] | 8.00 to 9.00 | 
CN1CCN(c2ccc(Nc3ncc(F)c(-n4cc(C(N)=O)c5ccccc54)n3)cc2)CC1 [Compound 52, 1-{5-fluoro-2-[4-(4-methyl-piperazin-1-yl)-phenylamino]-pyrimidin-4-yl}-1H-indole-3-carboxamide] | 8.00 to 9.00 | 
CN1CCN(c2ccc(Nc3ncc(Cl)c(-n4cc(C(N)=O)c5ccccc54)n3)cc2)CC1 [Compound 53, 1-{5-chloro-2-[4-(4-methyl-piperazin-1-yl)-phenylamino]-pyrimidin-4-yl}-1H-indole-3-carboxamide] | 8.00 to 9.00 | 
CN1CCN(c2ccc(Nc3ncc(F)c(-n4cc(C(N)=O)c5ccccc54)n3)cc2F)CC1 [Compound 54, 1-{5-fluoro-2-[3-fluoro-4-(4-methyl-piperazin-1-yl)-phenylamino]-pyrimidin-4-yl}-1H-indole-3-carboxamide] | 8.00 to 9.00 | 
CCN1CCN(c2ccc(Nc3ncc(F)c(-n4cc(C(N)=O)c5ccccc54)n3)cc2C)CC1 [Compound 57, 1-{2-[4-(4-ethyl-piperazin-1-yl)-3-methyl-phenylamino]-5-fluoro-pyrimidin-4-yl}-1H-indole-3-carboxamide] | 8.00 to 9.00 | 

SMILES | pIC50 [1] | pIC50 (MOLM-13, read-out: IC50 of the compound for inhibiting cell growth, MOLM13 cells)
CCN1CCN(c2ccc(Nc3ncc(Cl)c(-n4cc(C(N)=O)c5ccccc54)n3)cc2C)CC1 [Compound 58, 1-{5-chloro-2-[4-(4-ethyl-piperazin-1-yl)-3-methyl-phenylamino]-pyrimidin-4-yl}-1H-indole-3-carboxamide] | > 9.00 | 
Cc1cc(Nc2ncc(F)c(-n3cc(C(N)=O)c4ccccc43)n2)ccc1N1CCN(C(C)C)CC1 [Compound 59, 1-{5-fluoro-2-[4-(4-isopropyl-piperazin-1-yl)-3-methyl-phenylamino]-pyrimidin-4-yl}-1H-indole-3-carboxamide] | 8.00 to 9.00 | 
CN1CCN(c2ccc(Nc3ncc(Cl)c(-n4cc(C(N)=O)c5ccccc54)n3)cc2F)CC1 [Compound 61, 1-{5-chloro-2-[3-fluoro-4-(4-methyl-piperazin-1-yl)-phenylamino]-pyrimidin-4-yl}-1H-indole-3-carboxamide] | 8.00 to 9.00 | 
CN1CCC(N2CCN(c3ccc(Nc4nccc(-n5cc(C(N)=O)c6ccccc65)n4)cc3F)CC2)CC1 [Compound 62, 1-(2-{3-fluoro-4-[4-(1-methyl-piperidin-4-yl)-piperazin-1-yl]-phenylamino}-pyrimidin-4-yl)-1H-indole-3-carboxamide] | 7.00 to 8.00 | 
CN(C)CCN1CCN(c2ccc(Nc3nccc(-n4cc(C(N)=O)c5ccccc54)n3)cc2F)CC1 [Compound 63, 1-(2-{4-[4-(2-dimethylamino-ethyl)-piperazin-1-yl]-3-fluoro-phenylamino}-pyrimidin-4-yl)-1H-indole-3-carboxamide] | 8.00 to 9.00 | 
C=CC(=O)N1CCN(c2ccc(Nc3nccc(-n4cc(C(N)=O)c5ccccc54)n3)cc2C)CC1 [Compound 64, 1-{2-[4-(4-acryloyl-piperazin-1-yl)-3-methyl-phenylamino]-pyrimidin-4-yl}-1H-indole-3-carboxamide] | 7.00 to 8.00 | 
CCC(=O)N1CCN(c2ccc(Nc3nccc(-n4cc(C(N)=O)c5ccccc54)n3)cc2C)CC1 [Compound 65, 1-{2-[3-methyl-4-(4-propionyl-piperazin-1-yl)-phenylamino]-pyrimidin-4-yl}-1H-indole-3-carboxamide] | 7.00 to 8.00 | 
CC(=O)N1CCN(c2ccc(Nc3nccc(-n4cc(C(N)=O)c5ccccc54)n3)cc2F)CC1 [Compound 66, 1-{2-[4-(4-acetyl-piperazin-1-yl)-3-fluoro-phenylamino]-pyrimidin-4-yl}-1H-indole-3-carboxamide] | 7.00 to 8.00 | 
COC1CCN(c2ccc(Nc3nccc(-n4cc(C(N)=O)c5ccccc54)n3)cc2)CC1 [Compound 67, 1-{2-[4-(4-methoxy-piperidin-1-yl)-phenylamino]-pyrimidin-4-yl}-1H-indole-3-carboxamide] | 7.00 to 8.00 | 
Cc1cc(Nc2nccc(-n3cc(C(N)=O)c4ccccc43)n2)ccc1N1CCC(N(C)C)CC1 [Compound 68, 1-{2-[4-(4-dimethylamino-piperidin-1-yl)-3-methyl-phenylamino]-pyrimidin-4-yl}-1H-indole-3-carboxamide] | 8.00 to 9.00 | 
CN1CCCN(c2ccc(Nc3nccc(-n4cc(C(N)=O)c5ccccc54)n3)cc2)CC1 [Compound 69, 1-{2-[4-(4-methyl-[1,4]homopiperazin-1-yl)-phenylamino]-pyrimidin-4-yl}-1H-indole-3-carboxamide] | 8.00 to 9.00 | 
NC(=O)c1cn(-c2ccnc(Nc3ccc(N4CCOCC4)cc3)n2)c2ccccc12 [Compound 70, 1-[2-(4-morpholin-4-yl-phenylamino)-pyrimidin-4-yl]-1H-indole-3-carboxamide] | 7.00 to 8.00 | 
NC(=O)c1cn(-c2ccnc(Nc3ccc(N4CCOCC4)c(F)c3)n2)c2ccccc12 [Compound 71, 1-[2-(3-fluoro-4-morpholin-4-yl-phenylamino)-pyrimidin-4-yl]-1H-indole-3-carboxamide] | 7.00 to 8.00 | 
CN(CCN1CCOCC1)c1ccc(Nc2nccc(-n3cc(C(N)=O)c4ccccc43)n2)cc1 [Compound 72, 1-(2-{4-[methyl-(2-morpholin-4-ethyl)-amino]-phenylamino}-pyrimidin-4-yl)-1H-indole-3-carboxamide] | 7.00 to 8.00 | 
CN1CCN(CCN(C)c2ccc(Nc3nccc(-n4cc(C(N)=O)c5ccccc54)n3)cc2)CC1 [Compound 73, 1-[2-(4-{methyl-[2-(4-methyl-piperazin-1-yl)-ethyl]-amino}-phenylamino)-pyrimidin-4-yl]-1H-indole-3-carboxamide] |  | 8.00 to 9.00
CC(=O)N1CCN(CCN(C)c2ccc(Nc3nccc(-n4cc(C(N)=O)c5ccccc54)n3)cc2)CC1 [Compound 74] | 7.00 to 8.00 | 
